Assay results from ChEMBL document CHEMBL1201862, “PubChem BioAssay data set” (2004).
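96-well plates; 48 h exposure; 5 concentrations. Endpoints by linear interpolation between flanking doses. Not reached: highest tested concentration assigned. Abbreviation: GI50, concentration required for 50% inhibition of growth.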 Calls of active or inactive are those of the source. Cut-off read from the data, not from the text of the source: active = GI50 up to about 1.1 µM and inactive = higher.

Key:
Assay in all cases: NCI tumour cell line growth inhibition, 48 h
[1] = tested on: PC-3
[2] = tested on: EKVX
[3] = tested on: SNB-75
[4] = tested on: SK-MEL-2
[5] = tested on: KM12
[6] = tested on: SK-MEL-28
[7] = tested on: A498
[8] = tested on: COLO 205
[9] = tested on: 786-0
[10] = tested on: SF-295
[11] = tested on: MDA-MB-435
[12] = tested on: IGROV-1
[13] = tested on: SK-OV-3
[14] = tested on: SF-268
[15] = tested on: UACC-62
[16] = tested on: HOP-92
[17] = tested on: MOLT-4
[18] = tested on: Malme-3M
[19] = tested on: T47D
[20] = tested on: SNB-19
[21] = tested on: NCI-H522
[22] = tested on: OVCAR-8
[23] = tested on: CAKI-1
[24] = tested on: HOP-62
[25] = tested on: NCI/ADR-RES
[26] = tested on: OVCAR-3
[27] = tested on: UACC-257
[28] = tested on: UO-31
[29] = tested on: SF-539
[30] = tested on: HCT-116
[31] = tested on: K562
[32] = tested on: OVCAR-4
[33] = tested on: SW-620
[34] = tested on: CCRF-CEM
[35] = tested on: HT-29
[36] = tested on: BT-549
[37] = tested on: MDA-N
[38] = tested on: HCC 2998
[39] = tested on: NCI-H23
[40] = tested on: TK-10
[41] = tested on: DU-145
[42] = tested on: MDA-MB-231
[43] = tested on: SR
[44] = tested on: Hs-578T
[45] = tested on: RPMI-8226
[46] = tested on: SK-MEL-5
[47] = tested on: NCI-H460
[48] = tested on: OVCAR-5
[49] = tested on: RXF 393
[50] = tested on: A549
[51] = tested on: NCI-H226
[52] = tested on: LOX IMVI
[53] = tested on: HCT-15
[54] = tested on: MCF7
[55] = tested on: ACHN
[56] = tested on: SN12C
[57] = tested on: U-251
[58] = tested on: HL-60
[59] = tested on: M14
[60] = tested on: SNB-78
[61] = tested on: DMS-273
[62] = tested on: LXFL 529
[63] = tested on: DMS-114
[64] = tested on: KM-20L2
[65] = tested on: M19-MEL

What does the source list for Cc1nc2ccc(S(=O)(=O)NS(=O)(=O)c3ccc(-c4ccccc4)cc3)cc2c(=O)n1NS(=O)(=O)c1ccc(-c2ccccc2)cc1?
GI50 [1]: > 100 µM (inactive); GI50 [2]: 68.2 µM (inactive); GI50 [3]: > 100 µM (inactive); GI50 [4]: > 100 µM (inactive); GI50 [5]: > 100 µM (inactive); GI50 [6]: > 100 µM (inactive); GI50 [7]: 0.753 µM (active); GI50 [8]: > 100 µM (inactive); GI50 [9]: > 100 µM (inactive); GI50 [10]: > 100 µM (inactive); GI50 [11]: > 100 µM (inactive); GI50 [12]: 38.3 µM (inactive); GI50 [13]: > 100 µM (inactive); GI50 [14]: > 100 µM (inactive); GI50 [15]: > 100 µM (inactive); GI50 [16]: 23.4 µM (inactive); GI50 [17]: > 100 µM (inactive); GI50 [18]: > 100 µM (inactive); GI50 [19]: > 100 µM (inactive); GI50 [20]: > 100 µM (inactive); GI50 [21]: > 100 µM (inactive); GI50 [22]: 77.4 µM (inactive); GI50 [23]: > 100 µM (inactive); GI50 [24]: > 100 µM (inactive); GI50 [25]: > 100 µM (inactive); GI50 [26]: > 100 µM (inactive); GI50 [27]: > 100 µM (inactive); GI50 [28]: > 100 µM (inactive); GI50 [29]: > 100 µM (inactive); GI50 [30]: > 100 µM (inactive); GI50 [31]: > 100 µM (inactive); GI50 [32]: 60 µM (inactive); GI50 [33]: > 100 µM (inactive); GI50 [34]: > 100 µM (inactive); GI50 [35]: > 100 µM (inactive); GI50 [36]: > 100 µM (inactive); GI50 [37]: > 100 µM (inactive); GI50 [38]: > 100 µM (inactive); GI50 [39]: > 100 µM (inactive); GI50 [40]: > 100 µM (inactive); GI50 [41]: > 100 µM (inactive); GI50 [42]: > 100 µM (inactive); GI50 [43]: > 100 µM (inactive); GI50 [44]: > 100 µM (inactive); GI50 [45]: > 100 µM (inactive); GI50 [46]: > 100 µM (inactive); GI50 [47]: > 100 µM (inactive); GI50 [48]: > 100 µM (inactive); GI50 [49]: > 100 µM (inactive); GI50 [50]: > 100 µM (inactive); GI50 [51]: > 100 µM (inactive); GI50 [52]: > 100 µM (inactive); GI50 [53]: > 100 µM; GI50 [54]: > 100 µM (inactive); GI50 [55]: > 100 µM (inactive); GI50 [56]: > 100 µM (inactive); GI50 [57]: > 100 µM (inactive); GI50 [58]: > 100 µM (inactive); GI50 [59]: > 100 µM (inactive)

Which results are given for O=c1[nH]c(C2CCCCC2)nc2ccc(Cl)cc12?
GI50 [2]: > 100 µM (inactive); GI50 [3]: 38.3 µM (inactive); GI50 [4]: > 100 µM (inactive); GI50 [5]: > 100 µM (inactive); GI50 [6]: > 100 µM (inactive); GI50 [8]: > 100 µM (inactive); GI50 [9]: > 100 µM (inactive); GI50 [60]: > 100 µM (inactive); GI50 [10]: > 100 µM (inactive); GI50 [12]: 41.3 µM (inactive); GI50 [61]: > 100 µM (inactive); GI50 [13]: > 100 µM (inactive); GI50 [14]: > 100 µM (inactive); GI50 [15]: > 100 µM (inactive); GI50 [16]: > 100 µM (inactive); GI50 [17]: > 100 µM (inactive); GI50 [18]: > 100 µM (inactive); GI50 [20]: > 100 µM (inactive); GI50 [22]: > 100 µM (inactive); GI50 [26]: > 100 µM (inactive); GI50 [27]: > 100 µM (inactive); GI50 [28]: 93.3 µM (inactive); GI50 [29]: > 100 µM (inactive); GI50 [30]: > 100 µM (inactive); GI50 [31]: > 100 µM (inactive); GI50 [33]: > 100 µM (inactive); GI50 [62]: > 100 µM (inactive); GI50 [35]: > 100 µM (inactive); GI50 [63]: > 100 µM (inactive); GI50 [38]: > 100 µM (inactive); GI50 [39]: > 100 µM (inactive); GI50 [40]: > 100 µM (inactive); GI50 [43]: > 100 µM (inactive); GI50 [45]: > 100 µM (inactive); GI50 [64]: > 100 µM (inactive); GI50 [46]: > 100 µM (inactive); GI50 [48]: > 100 µM (inactive); GI50 [65]: > 100 µM (inactive); GI50 [49]: > 100 µM (inactive); GI50 [50]: > 100 µM (inactive); GI50 [51]: > 100 µM (inactive); GI50 [53]: > 100 µM; GI50 [55]: > 100 µM (inactive); GI50 [56]: > 100 µM (inactive); GI50 [57]: > 100 µM (inactive)

Which results are given for O=C(Nc1ccc(/N=N/c2ccccc2)cc1)Sc1ccccc1C(=O)O?
GI50 [2]: > 100 µM (inactive); GI50 [3]: > 100 µM (inactive); GI50 [4]: > 100 µM (inactive); GI50 [5]: > 100 µM (inactive); GI50 [6]: > 100 µM (inactive); GI50 [7]: > 100 µM (inactive); GI50 [8]: > 100 µM (inactive); GI50 [9]: > 100 µM (inactive); GI50 [60]: > 100 µM (inactive); GI50 [10]: > 100 µM (inactive); GI50 [12]: 0.7 µM (active); GI50 [61]: > 100 µM (inactive); GI50 [14]: > 100 µM (inactive); GI50 [15]: > 100 µM (inactive); GI50 [17]: > 100 µM (inactive); GI50 [20]: > 100 µM (inactive); GI50 [21]: > 100 µM (inactive); GI50 [22]: > 100 µM (inactive); GI50 [23]: > 100 µM (inactive); GI50 [24]: > 100 µM (inactive); GI50 [26]: > 100 µM (inactive); GI50 [27]: > 100 µM (inactive); GI50 [28]: > 100 µM (inactive); GI50 [29]: > 100 µM (inactive); GI50 [30]: 57.1 µM (inactive); GI50 [31]: > 100 µM (inactive); GI50 [32]: > 100 µM (inactive); GI50 [33]: > 100 µM (inactive); GI50 [62]: > 100 µM (inactive); GI50 [34]: > 10 µM (inactive); GI50 [35]: > 100 µM (inactive); GI50 [38]: > 100 µM (inactive); GI50 [39]: > 100 µM (inactive); GI50 [40]: > 100 µM (inactive); GI50 [43]: > 100 µM (inactive); GI50 [45]: > 100 µM (inactive); GI50 [64]: > 100 µM (inactive); GI50 [47]: > 100 µM (inactive); GI50 [48]: > 100 µM (inactive); GI50 [49]: 71.3 µM (inactive); GI50 [50]: > 100 µM (inactive); GI50 [51]: > 100 µM (inactive); GI50 [52]: > 100 µM (inactive); GI50 [53]: > 100 µM; GI50 [55]: > 100 µM (inactive); GI50 [56]: > 100 µM (inactive); GI50 [57]: > 100 µM (inactive); GI50 [58]: 1.7 µM (inactive); GI50 [59]: > 100 µM (inactive)
